The target in this test is T1, human kinase Mps-1 (Homo sapiens, UniProt P33981).
T1 construct: N-terminally GST-tagged human full length recombinant Mps-1 kinase; purchased Invitrogen, Karslruhe, Germany PV4071
T1 sequence (P33981 1-857): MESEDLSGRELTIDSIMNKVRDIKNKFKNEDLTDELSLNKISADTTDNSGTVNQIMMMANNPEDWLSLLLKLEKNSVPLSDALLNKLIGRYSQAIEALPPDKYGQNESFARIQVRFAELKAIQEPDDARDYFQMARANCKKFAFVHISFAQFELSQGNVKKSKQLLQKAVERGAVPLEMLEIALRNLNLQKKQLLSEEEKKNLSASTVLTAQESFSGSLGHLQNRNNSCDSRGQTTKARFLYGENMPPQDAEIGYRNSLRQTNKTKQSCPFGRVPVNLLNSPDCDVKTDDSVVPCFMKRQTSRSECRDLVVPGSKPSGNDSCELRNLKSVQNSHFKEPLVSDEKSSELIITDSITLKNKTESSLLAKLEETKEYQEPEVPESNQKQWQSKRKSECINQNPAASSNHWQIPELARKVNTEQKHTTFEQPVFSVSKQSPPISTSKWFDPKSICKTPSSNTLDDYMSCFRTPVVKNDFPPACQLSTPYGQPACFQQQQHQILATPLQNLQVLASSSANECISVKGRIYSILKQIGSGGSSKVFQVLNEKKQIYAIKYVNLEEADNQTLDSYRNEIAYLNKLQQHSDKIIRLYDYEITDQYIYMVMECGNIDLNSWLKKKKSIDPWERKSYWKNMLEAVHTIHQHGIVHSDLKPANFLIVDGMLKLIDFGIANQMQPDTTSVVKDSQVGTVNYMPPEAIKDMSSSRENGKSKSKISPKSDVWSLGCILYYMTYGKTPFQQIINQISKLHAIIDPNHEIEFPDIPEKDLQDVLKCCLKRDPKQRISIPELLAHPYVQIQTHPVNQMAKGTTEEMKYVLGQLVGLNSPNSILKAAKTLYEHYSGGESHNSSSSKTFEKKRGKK
Description: Mps-1 kinase assay (HTRF). The class given is biochemical. The note with it: lowATP; mean; read-out: Mps1 lowATP mean IC50. The gist of the method:
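HTRF readout: EDTA-stopped reactions incubated 1 h with europium anti-phospho(Ser/Thr) antibody and streptavidin-XLent, emission ratio 665/620 nm after 350 nm excitation. Kinase step: compound pre-bound 15 min to ~1 nM GST-Mps-1, then 60 min at 22 °C with ATP and biotin-peptide substrate; inhibition scaled between no-inhibitor (0%) and no-enzyme (100%) controls.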
On the technique in general: TR-FRET usually uses a lanthanide donor and a delayed reading to cut background.
The IC50 is the concentration at which inhibition is half-maximal. For `CNC(=O)Nc1ccc(-c2cnc3c(NCCO)nc4cc(C#N)ccc4n23)cc1` [Example 2-223, 1-(4-{7-cyano-4-[(2-hydroxyethyl)amino]imidazo[1,2-a]quinoxalin-1-yl}phenyl)-3-methylurea], the 50% inhibitory concentration (IC50) was 4320 nM.
For `CNC(=O)Nc1ccc(-c2cnc3c(NCc4ccccc4)nc4cc(C)c(C)cc4n23)cc1` [Example 2-166, 1-{4-[4-(benzylamino)-7,8-dimethylimidazo[1,2-a]quinoxalin-1-yl]phenyl}-3-methylurea], the IC50 came out at 609 nM.
Take `O=C(NC1CC1)c1ccc(-c2cnc3c(NCCCCO)nc4cc(F)c(F)cc4n23)cc1` [Example 2-96, N-cyclopropyl-4-{7,8-difluoro-4-[(4-hydroxybutyl)amino]imidazo[1,2-a]quinoxalin-1-yl}benzamide]: the concentration for half-maximal inhibition (IC50) was 59.5 nM.
Regarding `O=C(NC1CC1)c1ccc(-c2cnc3c(NCCCc4ccccc4)nc4ccccc4n23)cc1` [Example 2-27, N-cyclopropyl-4-{4-[(3-phenylpropyl)amino]imidazo[1,2-a]quinoxalin-1-yl}benzamide], the IC50 turned out to be 282 nM.
Consider `Cc1cc2nc(NCc3ccncc3)c3ncc(-c4ccc(C(=O)NC5CC5)c(Cl)c4)n3c2cc1C` [Example 2-193, 2-chloro-N-cyclopropyl-4-{7,8-dimethyl-4-[(pyridin-4-ylmethyl)amino]imidazo[1,2-a]quinoxalin-1-yl}benzamide], for which the IC50 is 51.2 nM.
`O=C(NC1CC1)c1ccc(-c2cnc3c(NCc4cccnc4)nc4ccc(F)cc4n23)cc1` [Example 2-54, N-cyclopropyl-4-{8-fluoro-4-[(pyridin-3-ylmethyl)amino]imidazo[1,2-a]quinoxalin-1-yl}benzamide]: the concentration for half-maximal inhibition (IC50) was determined as 98.5 nM.
Turning to `O=C(NC1CC1)c1ccc(-c2cnc3c(NCCCO)nc4cc(F)c(F)cc4n23)cc1Cl` [Example 2-130, 2-chloro-N-cyclopropyl-4-{7,8-difluoro-4-[(3-hydroxypropyl)amino]imidazo[1,2-a]quinoxalin-1-yl}benzamide], the IC50 is 3130 nM.
In the case of `COc1ncc(-c2cnc3c(NCC(C)C)nc4ccccc4n23)cn1` [Example 1-12, 1-(2-methoxypyrimidin-5-yl)-N-(2-methylpropyl)imidazo[1,2-a]quinoxalin-4-amine], the 50% inhibitory concentration (IC50) was 5540 nM.
`CCCCNc1nc2cc(F)c(F)cc2n2c(-c3ccc(C(=O)NC4CC4)c(Cl)c3)cnc12` [Example 2-131, 4-[4-(butylamino)-7,8-difluoroimidazo[1,2-a]quinoxalin-1-yl]-2-chloro-N-cyclopropylbenzamide]: the half-maximal inhibitory concentration (IC50) stood at 3730 nM.
For the compound `CC(C)CNc1nc2ccccc2n2c(-c3ccc(C(=O)NC4(C)CC4)cc3)cnc12` [Example 3-32, N-(1-methylcyclopropyl)-4-{4-[(2-methylpropyl)amino]imidazo[1,2-a]quinoxalin-1-yl}benzamide], the IC50 stood at 158 nM.
As for `CCCNc1nc2ccc(F)cc2n2c(-c3ccc(C(=O)NC4CC4)cc3)cnc12` [Example 2-40, N-cyclopropyl-4-[8-fluoro-4-(propylamino)imidazo[1,2-a]quinoxalin-1-yl]benzamide], the figure is 28.5 nM; as for `O=C(NC1CC1)c1ccc(-c2cnc3c(NCc4ccco4)nc4cc(F)c(F)cc4n23)cc1` [Example 2-105, N-cyclopropyl-4-{7,8-difluoro-4-[(furan-2-ylmethyl)amino]imidazo[1,2-a]quinoxalin-1-yl}benzamide], 52.8 nM.
With `O=C(NC1CC1)c1ccc(-c2cnc3c(NCc4cccs4)nc4ccccc4n23)cc1` [Example 2-18, N-cyclopropyl-4-{4-[(thiophen-2-ylmethyl)amino]imidazo[1,2-a]quinoxalin-1-yl}benzamide], the half-maximal inhibitory concentration (IC50) was found to be 46.6 nM.
Regarding `Cc1cc2nc(NCCCO)c3ncc(-c4ccc(C(=O)NC5CC5)c(Cl)c4)n3c2cc1C` [Example 2-186, 2-chloro-N-cyclopropyl-4-{4-[(3-hydroxypropyl)amino]-7,8-dimethylimidazo[1,2-a]quinoxalin-1-yl}benzamide], the 50% inhibitory concentration (IC50) was determined as 117 nM.
As for `COCCCNc1nc2ccc(F)cc2n2c(-c3ccc(C(=O)NC4CC4)cc3)cnc12` [Example 2-57, N-cyclopropyl-4-{8-fluoro-4-[(3-methoxypropyl)amino]imidazo[1,2-a]quinoxalin-1-yl}benzamide], the figure is 177 nM.
Take `CC(=O)NCCNc1nc2cc(C#N)ccc2n2c(-c3ccc(C(=O)NC4CC4)c(Cl)c3)cnc12` [Example 2-244, 4-(4-{[2-(acetylamino)ethyl]amino}-7-cyanoimidazo[1,2-a]quinoxalin-1-yl)-2-chloro-N-cyclopropylbenzamide]: the half-inhibitory concentration (IC50) came to 8820 nM.
On to `CNC(=O)Nc1ccc(-c2cnc3c(NCCOC)nc4ccc(F)cc4n23)cc1` [Example 2-61, 1-(4-{8-fluoro-4-[(2-methoxyethyl)amino]imidazo[1,2-a]quinoxalin-1-yl}phenyl)-3-methylurea], for which the half-maximal inhibitory concentration (IC50) was 7220 nM.
Regarding `CNC(=O)Nc1ccc(-c2cnc3c(NCc4cccnc4)nc4cc(C#N)ccc4n23)cc1` [Example 2-230, 1-(4-{7-cyano-4-[(pyridin-3-ylmethyl)amino]imidazo[1,2-a]quinoxalin-1-yl}phenyl)-3-methylurea], the concentration for half-maximal inhibition (IC50) was 1410 nM.
On to `Cc1cc2nc(NCC3CC3)c3ncc(-c4ccc(C(=O)NC5CC5)c(Cl)c4)n3c2cc1C` [Example 2-190, 2-chloro-N-cyclopropyl-4-{4-[(cyclopropylmethyl)amino]-7,8-dimethylimidazo[1,2-a]quinoxalin-1-yl}benzamide], for which the IC50 was found to be 43.5 nM.
For `NS(=O)(=O)CCNc1nc2ccccc2n2c(-c3ccc(C(=O)NC4CC4)cc3)cnc12` [Example 2-38, N-cyclopropyl-4-{4-[(2-sulfamoylethyl)amino]imidazo[1,2-a]quinoxalin-1-yl}benzamide], the IC50 came out at 42.2 nM.
On to `CC(C)CNc1nc2ccccc2n2c(-c3ccc(C(=O)NC4CCN(Cc5ccccc5)CC4)cc3)cnc12` [Example 3-7, N-(1-benzylpiperidin-4-yl)-4-{4-[(2-methylpropyl)amino]imidazo[1,2-a]quinoxalin-1-yl}benzamide], for which the IC50 is 15800 nM.
As to `CCCNc1nc2cc(C)c(C)cc2n2c(-c3ccc(NC(=O)NC)cc3)cnc12` [Example 2-159, 1-{4-[7,8-dimethyl-4-(propylamino)imidazo[1,2-a]quinoxalin-1-yl]phenyl}-3-methylurea], the IC50 was found to be 163 nM.
Regarding `Cc1ccc(-c2cnc3c(NCC(C)C)nc4ccccc4n23)cc1` [Example 1-7, 1-(4-methylphenyl)-N-(2-methylpropyl)imidazo[1,2-a]quinoxalin-4-amine], the IC50 came to 5360 nM.
As for `CNC(=O)Nc1ccc(-c2cnc3c(NCC(F)(F)F)nc4ccc(F)cc4n23)cc1` [Example 2-64, 1-(4-{8-fluoro-4-[(2,2,2-trifluoroethyl)amino]imidazo[1,2-a]quinoxalin-1-yl}phenyl)-3-methylurea], the 50% inhibitory concentration (IC50) is 6700 nM.
For the compound `O=C(NC1CC1)c1ccc(-c2cnc3c(NCCCN4CCCC4=O)nc4ccccc4n23)cc1` [Example 2-11, N-cyclopropyl-4-(4-{[3-(2-oxopyrrolidin-1-yl)propyl]amino}imidazo[1,2-a]quinoxalin-1-yl)benzamide], the IC50 stood at 296 nM.
Consider `COCCCNc1nc2cc(F)c(F)cc2n2c(-c3ccc(C(=O)NC4CC4)cc3)cnc12` [Example 2-108, N-cyclopropyl-4-{7,8-difluoro-4-[(3-methoxypropyl)amino]imidazo[1,2-a]quinoxalin-1-yl}benzamide], for which the IC50 was 114 nM.
Take `Cc1cc2nc(NCCCNC(=O)OC(C)(C)C)c3ncc(-c4ccc(C(=O)NC5CC5)c(Cl)c4)n3c2cc1C` [Example 2-197, tert-butyl [3-({1-[3-chloro-4-(cyclopropylcarbamoyl)phenyl]-7,8-dimethylimidazo[1,2-a]quinoxalin-4-yl}amino)propyl]carbamate]: the IC50 came to 50.5 nM.
As to `Cn1cc(CNc2nc3cc(C#N)ccc3n3c(-c4ccc(C(=O)NC5CC5)cc4)cnc23)cn1` [Example 2-221, 4-(7-cyano-4-{[(1-methyl-1H-pyrazol-4-yl)methyl]amino}imidazo[1,2-a]quinoxalin-1-yl)-N-cyclopropylbenzamide], the IC50 amounted to 67.1 nM.
For `O=C(NC1CC1)c1ccc(-c2cnc3c(NCCCn4ccnc4)nc4cc(F)c(F)cc4n23)cc1` [Example 2-103, N-cyclopropyl-4-(7,8-difluoro-4-{[3-(1H-imidazol-1-yl)propyl]amino}imidazo[1,2-a]quinoxalin-1-yl)benzamide], the IC50 stood at 229 nM.
For the compound `CC(C)CNc1nc2ccccc2n2c(-c3ccccc3C(F)(F)F)cnc12` [Example 1-23, N-(2-methylpropyl)-1-[2-(trifluoromethyl)phenyl]imidazo[1,2-a]quinoxalin-4-amine], the IC50 stood at 7710 nM.
